One series relates to Meloidogyne incognita. Kind of series: Nematode test, J2 infective juveniles of Meloidogyne incognita, mortality. The settings on record: 12.5 ppm; J2 infective juveniles suspended in solution; mortality after three days.
The next series has as its system Musca domestica. The following applies: 500 ppm by weight; knockdown assessed 15 minutes after treatment.
For a further series, the system named is Puccinia recondita. Kind of series: Fungicidal test, Puccinia recondita (PUCCRT) on wheat, PRCO. The class given is in vivo. The settings on record: METHOD 2 (unbanded).
Series [1] concerns Phytophthora infestans lycopersici. The class given is in vivo. The settings on record: METHOD 2 (unbanded).
Series [2] relates to Erysiphe graminis f.sp. tritici. Kind of series: Fungicidal test, Erysiphe graminis f.sp. tritici (ERYSGT) on wheat, PRCO. The class given is in vivo. The following applies: 1 d Prot/Foir; METHOD 2 (unbanded).
The next series deals with Septoria nodorum. Kind of series: Fungicidal test, Septoria nodorum (LEPTNO) on wheat, PRCO. Format: in vivo. The settings on record: METHOD 2 (unbanded).

Protocol for Meloidogyne incognita: The activities of individual compounds of formula (I) were determined using a variety of pests. With the exception of nematodes, the pests were treated with a liquid composition containing 500 parts per million (ppm) by weight of a compound unless otherwise stated. Each composition was made by dissolving the compound in an acetone and ethanol (50:50 by volume) mixture and diluting the solution with water containing 0.05% by volume of a wetting agent, SYNPERONIC NP8, until the liquid composition contained the required concentration of the compound.
The test procedure for nematodes involved dissolving the compound in an acetone and ethanol (50:50 by volume) mixture and diluting the solution with water to obtain a final concentration of the compound of 12.5 ppm. J2 infective juveniles of Meloidogyne incognita were suspended in the solution in a glass vial and mortality assessed after a period of three days.

In the case of `Cc1nsc(NC(=O)Cc2ccc3oc(-c4cccnc4Cl)nc3c2)c1Cl` [343(A3)], the “MELGIN = Meloidogyne incognita, grading of mortality (score)” value (shortened to “MELGIN = Meloidogyne incognita, grading”) in the series with Meloidogyne incognita was 0 (0 indicates less than 40% mortality).
Consider `CCCc1nc2cc(CC(=O)N(COCCOC)c3snc(C)c3Cl)ccc2o1` [4(M3)], for which the “MUSCDO AC = Musca domestica (knockdown), score” value (shortened to “MUSCDO AC = Musca domestica”) with Musca domestica is given as 0 (0 indicates less than 40% mortality). Further, in the series with Puccinia recondita, the “PUCCRT 1 d Prot/Foir PRCO” value came out at 85. Further, in the series with Meloidogyne incognita, the “MELGIN = Meloidogyne incognita, grading” value is listed as 0 (0 indicates less than 40% mortality). For the same compound, the “PHYTIN 1 d Prot/Foir PRCO” value in series [1] is on record as 81.
Take `Cc1nsc(NC(=O)Cc2ccc3oc(C4CCCCC4)nc3c2)c1Cl` [35(A3)]: in series [2], the “ERYSGT 1 d Prot/Foir PRCO” value is recorded as 93. In the series on Musca domestica, the “MUSCDO AC = Musca domestica” value is reported as 0 (0 indicates less than 40% mortality). Moreover, the “PUCCRT 1 d Prot/Foir PRCO” value with Puccinia recondita stood at 100. In addition, in the series on Meloidogyne incognita, the “MELGIN = Meloidogyne incognita, grading” value is on record as 0 (0 indicates less than 40% mortality). Besides, the “PHYTIN 1 d Prot/Foir PRCO” value in series [1] is 84. Further, the “LEPTNO 1 d Prot/Foir PRCO” value in the series on Septoria nodorum is given as −15.
As to `Cc1nsc(NC(=O)Cc2ccc3oc(Cl)nc3c2)c1Cl` [174(A3)], the “MUSCDO AC = Musca domestica” value in the series with Musca domestica is reported as 0 (0 indicates less than 40% mortality). Also, the “MELGIN = Meloidogyne incognita, grading” value in the series on Meloidogyne incognita is on record as 0 (0 indicates less than 40% mortality).
Consider `CCCc1nc2cc(CC(=O)N(COCC)c3snc(C)c3Cl)ccc2o1` [4(L3)], for which the “MUSCDO AC = Musca domestica” value in the series with Musca domestica was 9 (9 indicates 80-100% mortality). The “PUCCRT 1 d Prot/Foir PRCO” value with Puccinia recondita was found to be 100. Besides, the “MELGIN = Meloidogyne incognita, grading” value with Meloidogyne incognita was 0 (0 indicates less than 40% mortality). Further, the “PHYTIN 1 d Prot/Foir PRCO” value in series [1] was found to be 100.
Consider `CCCc1nc2cc(CC(=O)N(CC)c3snc(C)c3Cl)ccc2o1` [4(C3)], for which, in the series on Musca domestica, the “MUSCDO AC = Musca domestica” value is 0 (0 indicates less than 40% mortality). The “PUCCRT 1 d Prot/Foir PRCO” value in the series on Puccinia recondita came out at 96. In addition, the “MELGIN = Meloidogyne incognita, grading” value with Meloidogyne incognita was 0 (0 indicates less than 40% mortality). In series [1], the “PHYTIN 1 d Prot/Foir PRCO” value came out at 79.
Turning to `CCCN(C(=O)Cc1ccc2oc(C)nc2c1)c1snc(C)c1Cl` [2(D3)], in the series with Musca domestica, the “MUSCDO AC = Musca domestica” value is reported as 0 (0 indicates less than 40% mortality). Also, the “PUCCRT 1 d Prot/Foir PRCO” value in the series with Puccinia recondita amounted to 96. Besides, in the series on Meloidogyne incognita, the “MELGIN = Meloidogyne incognita, grading” value was 0 (0 indicates less than 40% mortality). Further, the “PHYTIN 1 d Prot/Foir PRCO” value in series [1] is listed as 59.
As to `Cc1nc2cc(CC(=O)N(C)c3snc(C)c3Cl)ccc2o1` [2(B3)], the “MUSCDO AC = Musca domestica” value with Musca domestica is on record as 9 (9 indicates 80-100% mortality). For the same compound, the “PUCCRT 1 d Prot/Foir PRCO” value with Puccinia recondita was found to be 96. Moreover, in the series with Meloidogyne incognita, the “MELGIN = Meloidogyne incognita, grading” value is recorded as 0 (0 indicates less than 40% mortality). Moreover, the “PHYTIN 1 d Prot/Foir PRCO” value in series [1] came to 100.
For `COCCOCN(C(=O)Cc1ccc2oc(CC(C)(C)C)nc2c1)c1snc(C)c1Cl` [15(M3)] the same measures were 0 (0 indicates less than 40% mortality), 6, 0 (0 indicates less than 40% mortality) and 98.
For `COCCOCN(C(=O)Cc1ccc2oc(C)nc2c1)c1snc(C)c1Cl` [2(M3)] the same measures were 0 (0 indicates less than 40% mortality), 68, 0 (0 indicates less than 40% mortality) and 83.
Consider `Cc1nsc(NC(=O)Cc2ccc3oc(-c4ccccc4F)nc3c2)c1Cl` [272(A3)], for which the “MELGIN = Meloidogyne incognita, grading” value in the series on Meloidogyne incognita is 0 (0 indicates less than 40% mortality).
With `C#CCN(C(=O)Cc1ccc2oc(CC(C)(C)C)nc2c1)c1snc(C)c1Cl` [15(F3)], in the series on Musca domestica, the “MUSCDO AC = Musca domestica” value was 0 (0 indicates less than 40% mortality). In the series with Puccinia recondita, the “PUCCRT 1 d Prot/Foir PRCO” value is on record as 95. The “MELGIN = Meloidogyne incognita, grading” value in the series with Meloidogyne incognita is reported as 0 (0 indicates less than 40% mortality). For the same compound, the “PHYTIN 1 d Prot/Foir PRCO” value in series [1] was 100.
`C=CCN(C(=O)Cc1ccc2oc(C)nc2c1)c1snc(C)c1Cl` [2(E3)]: the “MUSCDO AC = Musca domestica” value in the series on Musca domestica was 0 (0 indicates less than 40% mortality). In the series on Puccinia recondita, the “PUCCRT 1 d Prot/Foir PRCO” value is recorded as 99. The “MELGIN = Meloidogyne incognita, grading” value with Meloidogyne incognita is recorded as 0 (0 indicates less than 40% mortality). Moreover, the “PHYTIN 1 d Prot/Foir PRCO” value in series [1] was found to be 98.
As to `C#CCN(C(=O)Cc1ccc2oc(C)nc2c1)c1snc(C)c1Cl` [2(F3)], the “MUSCDO AC = Musca domestica” value in the series on Musca domestica is on record as 0 (0 indicates less than 40% mortality). The “PUCCRT 1 d Prot/Foir PRCO” value in the series with Puccinia recondita was 90. The “MELGIN = Meloidogyne incognita, grading” value in the series on Meloidogyne incognita was 0 (0 indicates less than 40% mortality). Moreover, the “PHYTIN 1 d Prot/Foir PRCO” value in series [1] is on record as 100.
For `C=CCN(C(=O)Cc1ccc2oc(CCC)nc2c1)c1snc(C)c1Cl` [4(E3)], in the series with Musca domestica, the “MUSCDO AC = Musca domestica” value is recorded as 0 (0 indicates less than 40% mortality). Also, in the series with Puccinia recondita, the “PUCCRT 1 d Prot/Foir PRCO” value was 97. The “MELGIN = Meloidogyne incognita, grading” value with Meloidogyne incognita is on record as 0 (0 indicates less than 40% mortality). Also, in series [1], the “PHYTIN 1 d Prot/Foir PRCO” value was 95.
As for `C#CCN(C(=O)Cc1ccc2oc(CCC)nc2c1)c1snc(C)c1Cl` [4(F3)], the “MUSCDO AC = Musca domestica” value in the series with Musca domestica was 0 (0 indicates less than 40% mortality). The “PUCCRT 1 d Prot/Foir PRCO” value in the series with Puccinia recondita is reported as 100. In addition, in the series on Meloidogyne incognita, the “MELGIN = Meloidogyne incognita, grading” value is 0 (0 indicates less than 40% mortality). The “PHYTIN 1 d Prot/Foir PRCO” value in series [1] was determined as 99.
Turning to `Cc1nsc(NC(=O)Cc2ccc3oc(C(F)(F)C(F)(F)Cl)nc3c2)c1Cl` [86(A3)], in the series with Meloidogyne incognita, the “MELGIN = Meloidogyne incognita, grading” value was 0 (0 indicates less than 40% mortality).
`C=CCN(C(=O)Cc1ccc2oc(CC(C)(C)C)nc2c1)c1snc(C)c1Cl` [15(E3)]: the “MUSCDO AC = Musca domestica” value in the series with Musca domestica is recorded as 0 (0 indicates less than 40% mortality). The “PUCCRT 1 d Prot/Foir PRCO” value with Puccinia recondita is 74. Also, in the series on Meloidogyne incognita, the “MELGIN = Meloidogyne incognita, grading” value is listed as 0 (0 indicates less than 40% mortality). In addition, the “PHYTIN 1 d Prot/Foir PRCO” value in series [1] came out at 83.
For `CCOCN(C(=O)Cc1ccc2oc(C)nc2c1)c1snc(C)c1Cl` [2(L3)], the “MUSCDO AC = Musca domestica” value in the series with Musca domestica is given as 9 (9 indicates 80-100% mortality). Moreover, in the series with Puccinia recondita, the “PUCCRT 1 d Prot/Foir PRCO” value is on record as 93. Moreover, the “MELGIN = Meloidogyne incognita, grading” value with Meloidogyne incognita was 0 (0 indicates less than 40% mortality). Moreover, in series [1], the “PHYTIN 1 d Prot/Foir PRCO” value is recorded as 82.
As for `Cc1nsc(NC(=O)Cc2ccc3oc(-c4ccc([N+](=O)[O-])cc4Cl)nc3c2)c1Cl` [267(A3)], the “MELGIN = Meloidogyne incognita, grading” value with Meloidogyne incognita is 0 (0 indicates less than 40% mortality).
With `CCN(C(=O)Cc1ccc2oc(C)nc2c1)c1snc(C)c1Cl` [2(C3)], the “MUSCDO AC = Musca domestica” value with Musca domestica is 9 (9 indicates 80-100% mortality). The “PUCCRT 1 d Prot/Foir PRCO” value in the series with Puccinia recondita is on record as 74. In addition, in the series on Meloidogyne incognita, the “MELGIN = Meloidogyne incognita, grading” value is 0 (0 indicates less than 40% mortality). Besides, in series [1], the “PHYTIN 1 d Prot/Foir PRCO” value worked out at 150.
For the compound `Cc1nsc(NC(=O)Cc2ccc3oc(Cc4cccs4)nc3c2)c1Cl` [334(A3)], the “MELGIN = Meloidogyne incognita, grading” value in the series with Meloidogyne incognita was 0 (0 indicates less than 40% mortality).
Take `CC=Cc1nc2cc(CC(=O)Nc3snc(C)c3Cl)ccc2o1` [45(A3)]: the “MUSCDO AC = Musca domestica” value with Musca domestica was 9 (9 indicates 80-100% mortality). In addition, the “MELGIN = Meloidogyne incognita, grading” value with Meloidogyne incognita is recorded as 0 (0 indicates less than 40% mortality).
With `Cc1nsc(NC(=O)Cc2ccc3oc(S)nc3c2)c1Cl` [352(A3)], the “MUSCDO AC = Musca domestica” value in the series on Musca domestica is listed as 0 (0 indicates less than 40% mortality). Also, the “PUCCRT 1 d Prot/Foir PRCO” value in the series on Puccinia recondita is recorded as 100. The “MELGIN = Meloidogyne incognita, grading” value in the series with Meloidogyne incognita is on record as 0 (0 indicates less than 40% mortality). Moreover, the “PHYTIN 1 d Prot/Foir PRCO” value in series [1] was found to be 100.
`COCN(C(=O)Cc1ccc2oc(CC(C)(C)C)nc2c1)c1snc(C)c1Cl` [15(K3)]: the “MUSCDO AC = Musca domestica” value in the series on Musca domestica was 0 (0 indicates less than 40% mortality). In addition, the “MELGIN = Meloidogyne incognita, grading” value in the series with Meloidogyne incognita is 0 (0 indicates less than 40% mortality).
Turning to `CCCc1nc2cc(CC(=O)N(COC)c3snc(C)c3Cl)ccc2o1` [4(K3)], the “MUSCDO AC = Musca domestica” value in the series with Musca domestica was 0 (0 indicates less than 40% mortality). In addition, in the series with Puccinia recondita, the “PUCCRT 1 d Prot/Foir PRCO” value is recorded as 100. The “MELGIN = Meloidogyne incognita, grading” value in the series with Meloidogyne incognita is recorded as 0 (0 indicates less than 40% mortality). For the same compound, the “PHYTIN 1 d Prot/Foir PRCO” value in series [1] is reported as 98.
For the compound `CCCc1nc2cc(CC(=O)N(CCC)c3snc(C)c3Cl)ccc2o1` [4(D3)], the “MUSCDO AC = Musca domestica” value in the series on Musca domestica is reported as 0 (0 indicates less than 40% mortality). The “PUCCRT 1 d Prot/Foir PRCO” value in the series with Puccinia recondita was 90. Further, the “MELGIN = Meloidogyne incognita, grading” value with Meloidogyne incognita is 0 (0 indicates less than 40% mortality). Besides, the “PHYTIN 1 d Prot/Foir PRCO” value in series [1] was 96.
Consider `Cc1nsc(NC(=O)Cc2ccc3oc(-c4ccno4)nc3c2)c1Cl` [349(A3)], for which the “MELGIN = Meloidogyne incognita, grading” value in the series with Meloidogyne incognita is recorded as 0 (0 indicates less than 40% mortality).
Turning to `COCN(C(=O)Cc1ccc2oc(C)nc2c1)c1snc(C)c1Cl` [2(K3)], the “MUSCDO AC = Musca domestica” value with Musca domestica was 9 (9 indicates 80-100% mortality). The “PUCCRT 1 d Prot/Foir PRCO” value with Puccinia recondita was 97. Also, the “MELGIN = Meloidogyne incognita, grading” value with Meloidogyne incognita was 0 (0 indicates less than 40% mortality). The “PHYTIN 1 d Prot/Foir PRCO” value in series [1] is listed as 98.
For `Cc1nsc(NC(=O)Cc2ccc3oc(SCC#N)nc3c2)c1Cl` [228(A3)] the same measures were 0 (0 indicates less than 40% mortality), 6, 0 (0 indicates less than 40% mortality) and 66.
For `CCCc1nc2cc(CC(=O)N(C)c3snc(C)c3Cl)ccc2o1` [4(B3)] the same measures were 0 (0 indicates less than 40% mortality), 48, 0 (0 indicates less than 40% mortality) and 100.

Values taken from patent publication US6544989B2, “Benzazoles: benzoxazole, benzthiazole and benzimidazole derivatives” (Syngenta Limited, priority 1998, dated 2003).
